Assay results as given in ChEMBL document CHEMBL1201862, “PubChem BioAssay data set” (2004).
Activity calls are given as the source filed them.

Assays:
[1] = P. falciparum late gametocyte killing, dose response, luminescence (AID 1117278); format: functional, cell-based;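 further: gametocytes exposed to compound for 24 hours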
[2] = Jurkat T cell cytotoxicity, dose response, cytotoxicity control for P. falciparum gametocyte viability project, luminescence (AID 1117277); format: functional, cell-based;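 further: potency reflects loss of cellular ATP meaning fewer viable cells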
Paired box protein Pax-8 = Paired box protein Pax-8 (Homo sapiens, UniProt Q06710); assay: inhibitors of PAX8-driven TPO luciferase reporter, dose response, RMG-I cells, cherry-pick (AID 687027); format: functional, cell-based;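 further: luciferase reporter driven by Pax8 target thyroperoxidase promoter measured by SteadyGlo luminescence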
[3] = PAX2 cell-based inhibition, dose response, selectivity assay for PAX8 inhibitor project, plate reader, dry powder samples (AID 743048); format: functional;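 further: HEK293 cells carrying a WT1 promoter luciferase reporter driven by expressed Pax2; potency is for inhibition of Pax2 driven reporter signal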
[4] = cytotoxicity in COV362 ovarian cancer cells, dose response, cytotoxicity control for PAX8 inhibitor project, cell-based, plate reader, dry powder, SA12 (AID 743144); format: functional
[5] = NIH:OVCAR-3 ovarian cancer cell cytotoxicity, dose response, PAX8 inhibitor project, plate reader, dry powder samples (AID 743044); format: functional, cell-based
[6] = PAX5 activity inhibitors, dose response, selectivity assay for PAX8 inhibitor project, cell-based, plate reader, dry powder samples (AID 743047); format: functional;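 further: HEK293 cells carrying a Pax5 driven CD19 promoter luciferase reporter; potency of inhibitors that lower reporter luminescence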
[7] = cytotoxicity in OVCAR4 cells, dose response, cytotoxicity control for PAX8 inhibitor project, cell-based, plate reader, dry powder, SA11 (AID 743150); format: functional; details: OVCAR-4
[8] = cytotoxicity in COV434 cells, dose response, cytotoxicity control for PAX8 inhibitor project, cell-based, plate reader, dry powder, SA7 (AID 743145); format: functional
[9] = cytotoxicity in OV-90 ovarian cancer cells, dose response, PAX8 inhibitor project, cell-based, plate reader, dry powder, SA8 (AID 743149); format: functional
[10] = cytotoxicity dependent on PAX8, dose response, cell-based, plate reader, dry powder (AID 743049); format: functional
Aminopeptidase N = target: T1, Aminopeptidase N (Plasmodium falciparum FcB1/Columbia, UniProt O96935); assay: P. falciparum M1AAP inhibitors, biochemical, fluorogenic H-Leu-NHMec substrate, 1536-well (AID 1445); set-up: species or system Plasmodium falciparum 3D7, 3D7
T1 sequence (O96935 whole entry): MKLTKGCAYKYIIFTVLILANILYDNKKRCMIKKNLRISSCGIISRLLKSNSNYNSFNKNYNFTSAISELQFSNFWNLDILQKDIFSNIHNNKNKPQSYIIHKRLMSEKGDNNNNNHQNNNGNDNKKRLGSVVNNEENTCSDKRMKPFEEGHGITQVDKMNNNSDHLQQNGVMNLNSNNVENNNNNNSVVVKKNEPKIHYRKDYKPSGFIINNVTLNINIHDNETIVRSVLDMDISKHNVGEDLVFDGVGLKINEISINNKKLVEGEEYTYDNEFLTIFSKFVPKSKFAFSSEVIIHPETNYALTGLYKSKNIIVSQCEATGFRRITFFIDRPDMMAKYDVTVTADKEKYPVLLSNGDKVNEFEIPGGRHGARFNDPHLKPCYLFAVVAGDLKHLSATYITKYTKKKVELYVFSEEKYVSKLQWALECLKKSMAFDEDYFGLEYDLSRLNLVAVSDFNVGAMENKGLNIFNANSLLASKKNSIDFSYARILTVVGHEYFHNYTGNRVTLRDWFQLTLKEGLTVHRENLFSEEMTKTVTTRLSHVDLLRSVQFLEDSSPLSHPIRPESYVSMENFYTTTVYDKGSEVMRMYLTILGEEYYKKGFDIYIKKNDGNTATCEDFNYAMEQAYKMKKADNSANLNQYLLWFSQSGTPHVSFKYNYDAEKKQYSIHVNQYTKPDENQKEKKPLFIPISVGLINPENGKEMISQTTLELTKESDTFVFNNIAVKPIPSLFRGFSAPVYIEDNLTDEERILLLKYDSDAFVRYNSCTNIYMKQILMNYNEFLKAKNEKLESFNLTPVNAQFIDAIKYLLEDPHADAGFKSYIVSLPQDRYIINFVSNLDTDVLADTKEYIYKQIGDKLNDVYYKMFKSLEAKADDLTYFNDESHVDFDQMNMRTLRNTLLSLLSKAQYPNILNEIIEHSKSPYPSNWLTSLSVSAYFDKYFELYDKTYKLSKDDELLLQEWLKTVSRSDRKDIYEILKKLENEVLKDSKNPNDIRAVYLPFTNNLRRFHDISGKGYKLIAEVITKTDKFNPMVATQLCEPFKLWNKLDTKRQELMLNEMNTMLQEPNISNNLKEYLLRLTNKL

[11] = target: T2, RNA-binding protein pos-1 (Caenorhabditis elegans, UniProt G5EF15); assay: inhibitors of POS-1/mex-3 RNA binding, dose response, biochemical, fluorescence polarization (AID 1964);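 further: purified POS-1 fused to maltose binding protein made in E. coli; potency of compounds blocking POS-1 binding to fluorescent RNA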
T2 sequence (G5EF15 whole entry): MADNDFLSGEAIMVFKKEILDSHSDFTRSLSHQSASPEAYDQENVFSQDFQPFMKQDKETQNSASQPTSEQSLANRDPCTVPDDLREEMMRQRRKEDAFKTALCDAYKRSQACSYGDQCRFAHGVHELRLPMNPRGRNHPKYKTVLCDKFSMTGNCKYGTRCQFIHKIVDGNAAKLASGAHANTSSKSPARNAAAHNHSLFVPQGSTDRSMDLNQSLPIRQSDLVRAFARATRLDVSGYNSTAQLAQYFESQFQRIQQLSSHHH

[12] = target: T3, Zinc finger protein mex-5 (Caenorhabditis elegans, UniProt Q9XUB2); assay: MEX-5/TCR-2 RNA interaction inhibitors, dose response, biochemical, C. elegans, fluorescence polarization (AID 1960)
T3 sequence (Q9XUB2 whole entry): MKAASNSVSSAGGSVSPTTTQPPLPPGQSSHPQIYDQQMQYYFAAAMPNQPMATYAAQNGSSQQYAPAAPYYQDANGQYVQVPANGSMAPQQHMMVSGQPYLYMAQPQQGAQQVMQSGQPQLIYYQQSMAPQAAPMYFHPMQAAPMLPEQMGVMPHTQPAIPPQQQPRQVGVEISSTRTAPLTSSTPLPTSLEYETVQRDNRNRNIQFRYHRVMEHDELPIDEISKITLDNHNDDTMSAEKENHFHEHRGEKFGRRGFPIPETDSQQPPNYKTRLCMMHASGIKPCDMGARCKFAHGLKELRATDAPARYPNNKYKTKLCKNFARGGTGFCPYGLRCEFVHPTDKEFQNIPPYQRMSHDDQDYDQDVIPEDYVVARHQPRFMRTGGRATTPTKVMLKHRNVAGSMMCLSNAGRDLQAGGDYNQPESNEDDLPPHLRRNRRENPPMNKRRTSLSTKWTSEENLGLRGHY

Albumin = Albumin (Bos taurus, UniProt P02769); assay: Counterscreen for inhibitors of T-cell receptor (TCR)-CD3 interaction: Fluorescence-based biochemical high throughput dose response assay to identify inhibitors of T-cell receptor (TCR)-CD3 interaction using a TAMRA-labeled BSA probe.; format: functional
[13] = target: RNA-editing ligase 1, mitochondrial (Trypanosoma brucei brucei, UniProt P86926); assay: TbREL1 ligase inhibitors, dose response, biochemical, fluorescence, Trypanosoma brucei (AID 1117295); format: functional
[14] = target: NAD-dependent protein deacylase sirtuin-5, mitochondrial (Homo sapiens, UniProt Q9NXA8); assay: SIRT5 desuccinylase inhibitors, dose response, biochemical, fluorescence imaging, cherry-pick, set 5 (AID 720591);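 further: desuccinylation of succinyl peptide AMC substrate read as fluorescence after trypsin release; potency of inhibitors that lower fluorescence and may act on trypsin instead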
HEK293 [15] = assay: NOD1 signaling inhibitors, primary screen, cell-based, luminescence, uHTS (AID 1578); format: functional; details: Homo sapiens
HEK293 [16] = assay: cells; format: functional, cell-based; details: Homo sapiens
HEK293 [17] = assay: cells; format: functional, cell-based; details: Homo sapiens; remark: listed apart in the source
HEK293 [18] = assay: NOD2 signaling inhibitors in MDP-stimulated cells, cell-based, uHTS, luminescence (AID 2001); format: functional; details: Homo sapiens
[19] = Vero cell cytotoxicity, dose response, cytotoxicity control for Vif-APOBEC3G degradation inhibitor project, Vero cells (AID 1117358); format: functional; details: Human immunodeficiency virus 1, Vero

Sequence of NAD-dependent protein deacylase sirtuin-5, mitochondrial (Q9NXA8 whole entry): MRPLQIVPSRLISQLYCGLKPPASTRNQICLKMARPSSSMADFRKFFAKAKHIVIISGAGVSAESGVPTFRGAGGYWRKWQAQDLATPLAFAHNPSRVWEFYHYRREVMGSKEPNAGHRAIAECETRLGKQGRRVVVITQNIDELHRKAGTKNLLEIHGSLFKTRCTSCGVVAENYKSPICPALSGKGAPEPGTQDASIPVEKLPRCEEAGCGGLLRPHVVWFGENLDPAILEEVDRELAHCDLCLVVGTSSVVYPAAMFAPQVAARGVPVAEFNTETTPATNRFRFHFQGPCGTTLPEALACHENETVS
Sequence of Paired box protein Pax-8 (Q06710 whole entry): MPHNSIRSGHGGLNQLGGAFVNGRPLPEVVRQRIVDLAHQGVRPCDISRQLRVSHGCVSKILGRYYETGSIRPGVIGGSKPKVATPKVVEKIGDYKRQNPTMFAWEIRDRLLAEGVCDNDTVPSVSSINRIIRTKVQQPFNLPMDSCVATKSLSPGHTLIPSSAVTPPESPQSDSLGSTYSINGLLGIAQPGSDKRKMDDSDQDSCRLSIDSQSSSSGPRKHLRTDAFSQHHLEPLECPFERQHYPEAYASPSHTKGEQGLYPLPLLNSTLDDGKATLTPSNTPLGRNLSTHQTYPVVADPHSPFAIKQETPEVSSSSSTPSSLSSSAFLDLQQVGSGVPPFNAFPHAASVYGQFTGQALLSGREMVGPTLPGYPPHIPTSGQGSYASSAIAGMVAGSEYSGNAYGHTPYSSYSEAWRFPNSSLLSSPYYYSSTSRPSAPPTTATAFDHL
Sequence of Albumin (P02769 whole entry): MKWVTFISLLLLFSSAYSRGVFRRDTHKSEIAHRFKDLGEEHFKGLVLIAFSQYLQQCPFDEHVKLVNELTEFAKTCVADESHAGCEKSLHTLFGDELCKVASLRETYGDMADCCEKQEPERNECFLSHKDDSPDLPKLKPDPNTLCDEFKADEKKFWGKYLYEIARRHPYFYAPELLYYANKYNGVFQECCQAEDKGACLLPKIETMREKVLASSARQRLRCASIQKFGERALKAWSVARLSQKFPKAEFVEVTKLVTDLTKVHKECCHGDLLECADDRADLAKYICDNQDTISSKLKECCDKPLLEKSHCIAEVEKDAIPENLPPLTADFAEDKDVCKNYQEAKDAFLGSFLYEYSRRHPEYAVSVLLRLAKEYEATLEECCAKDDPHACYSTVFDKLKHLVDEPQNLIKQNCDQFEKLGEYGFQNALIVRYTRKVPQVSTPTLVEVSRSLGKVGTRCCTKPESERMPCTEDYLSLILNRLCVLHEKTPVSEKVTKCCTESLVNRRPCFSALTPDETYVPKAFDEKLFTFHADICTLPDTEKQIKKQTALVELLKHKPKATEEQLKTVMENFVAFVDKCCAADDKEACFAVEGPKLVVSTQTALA
Sequence of RNA-editing ligase 1, mitochondrial (P86926 whole entry): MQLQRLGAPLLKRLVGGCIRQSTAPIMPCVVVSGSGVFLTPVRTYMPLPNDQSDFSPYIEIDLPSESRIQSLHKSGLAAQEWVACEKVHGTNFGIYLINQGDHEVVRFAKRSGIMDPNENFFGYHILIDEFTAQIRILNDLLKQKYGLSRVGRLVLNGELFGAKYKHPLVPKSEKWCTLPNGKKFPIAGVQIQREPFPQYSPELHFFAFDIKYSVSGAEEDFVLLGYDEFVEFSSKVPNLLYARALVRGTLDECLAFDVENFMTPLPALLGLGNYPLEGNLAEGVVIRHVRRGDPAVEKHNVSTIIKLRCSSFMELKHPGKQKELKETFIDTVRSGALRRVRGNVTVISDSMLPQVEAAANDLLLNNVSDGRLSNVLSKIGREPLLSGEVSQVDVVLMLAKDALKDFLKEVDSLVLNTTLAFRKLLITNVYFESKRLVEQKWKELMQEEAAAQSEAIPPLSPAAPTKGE

What does the source list for `CC(C)Cc1nnc(NC(=O)CSc2nc(O)c(-c3ccccc3)c(O)n2)s1`?
IC50 [1]: > 109 µM (inactive); IC50 [2]: > 83.3 µM (inactive)

What does the source list for `COc1ccc(NC(=O)Nc2ccc3c(c2)C(=O)N([C@H](C)CO)C[C@H](C)[C@H](CN(C)Cc2ccc(C(F)(F)F)cc2)OCCCC[C@H](C)O3)cc1`?
AC50 (Paired box protein Pax-8): 9.32 µM (active); AC50 [3]: 18.4 µM (active); AC50 [4]: 26 µM (active); AC50 [5]: 24 µM (active); AC50 [6]: 22.9 µM (active); AC50 [7]: 20.4 µM (active); AC50 [8]: 27.7 µM (active); AC50 [9]: 23.6 µM (active); AC50 [10]: 22.4 µM (active)

With `Cc1n[nH]c(S/C(=C/c2ccc(-c3ccc(C(=O)O)cc3)o2)C(=O)O)n1` as the molecule, how does the IC50 (Aminopeptidase N) read?
Its IC50 is 18.5 µM (active).

And the EC50 [11]?
Its EC50 is 4.1 µM (active).

And the EC50 [12]?
The EC50 was 1.45 µM (active).

What about the IC50 (Albumin) of the same molecule?
Its IC50 is > 94.2 µM (inactive).

And the IC50 [13]?
Its IC50 is 77.9 µM (inactive).

With `C=CCN(c1ccccc1)S(=O)(=O)c1cccc(C(=O)Nc2ccncc2)c1` as the molecule, how does the AC50 [14] read?
The AC50 was > 30 µM (inactive).

For `COc1ccc(NC(=O)c2cccc(S(=O)(=O)Nc3ccc(Br)cc3)c2)cn1`, which EC50 (HEK293 [15]) is on record?
Its EC50 is 11.2 µM (active).

And the IC50 (HEK293 [16])?
Its IC50 is 17.3 µM (active).

What about the IC50 (HEK293 [17]) of the same molecule?
The IC50 was > 20 µM (inactive).

And the IC50 (HEK293 [18])?
Its IC50 is 8.65 µM (active).

What about the CC50 [19] of the same molecule?
Its CC50 is 22.8 µM (active).
